{"source": "patent US20080027006A1", "about": "(priority 2004, published 2008)", "data": [{"target": "HR-N and HR-C regions of the SARS-CoV S glycoprotein (Severe acute respiratory syndrome coronavirus, UniProt P59594)", "type": "binding, SARS coronavirus (Urbani strain)", "values": [{"smiles": "CC[C@H](C)[C@H](NC(=O)[C@H](C)NC(=O)[C@H](CCCCN)NC(=O)[C@H](CC(N)=O)NC(=O)[C@H](Cc1ccccc1)NC(=O)[C@H](CCC(N)=O)NC(=O)[C@H](CC(N)=O)NC(=O)[C@H](C)NC(=O)[C@@H](NC(=O)[C@H](CCC(N)=O)NC(=O)[C@H](CCCCN)NC(=O)[C@H](CCC(N)=O)NC(=O)[C@H](CC(N)=O)NC(=O)[C@H](CCC(=O)O)NC(=O)[C@H](Cc1ccc(O)cc1)NC(=O)[C@H](CC(C)C)NC(=O)[C@@H](NC(=O)[C@H](CC(N)=O)NC(=O)[C@H](CCC(N)=O)NC(C)=O)C(C)C)[C@@H](C)CC)C(=O)N[C@@H](CO)C(=O)N[C@@H](CCC(N)=O)C(=O)N[C@H](C(=O)N[C@@H](CCC(N)=O)C(=O)N[C@@H](CCC(=O)O)C(=O)N[C@@H](CO)C(=O)N[C@@H](CC(C)C)C(=O)N[C@H](C(=O)N[C@H](C(=O)N[C@H](C(=O)N[C@@H](CO)C(=O)N[C@H](C(=O)N[C@@H](C)C(=O)N[C@@H](CC(C)C)C(=O)NCC(=O)N[C@@H](CCCCN)C(N)=O)[C@@H](C)O)[C@@H](C)O)[C@@H](C)O)[C@@H](C)O)[C@@H](C)CC", "note": "[HR-N7]", "interaction with HR-C1 (in words)": "No interactions"}, {"smiles": "CC[C@H](C)[C@H](NC(=O)[C@H](C)NC(=O)CNC(=O)[C@H](Cc1ccccc1)NC(=O)[C@H](CC(N)=O)NC(=O)[C@H](CO)NC(=O)[C@H](CO)NC(=O)[C@H](CC(C)C)NC(=O)[C@H](CCC(N)=O)NC(=O)[C@H](CCCCN)NC(=O)[C@@H](NC(=O)[C@H](CC(C)C)NC(=O)[C@@H](NC(=O)[C@H](CC(N)=O)NC(=O)[C@H](CC(C)C)NC(=O)[C@H](C)NC(=O)[C@H](CCC(N)=O)NC(=O)[C@H](C)NC(=O)[C@H](CC(N)=O)NC(=O)[C@H](CCC(N)=O)NC(=O)[C@H](CC(N)=O)NC(=O)[C@@H](NC(=O)[C@@H](NC(=O)[C@H](CC(=O)O)NC(=O)[C@H](CCC(N)=O)NC(=O)[C@H](CC(C)C)NC(=O)[C@H](CCCCN)NC(=O)CNC(=O)[C@H](CC(C)C)NC(=O)[C@H](C)NC(=O)[C@@H](NC(=O)[C@H](CO)NC(=O)[C@@H](NC(C)=O)[C@@H](C)O)[C@@H](C)O)C(C)C)C(C)C)[C@@H](C)O)C(C)C)C(=O)N[C@@H](CO)C(=O)N[C@@H](CO)C(N)=O", "note": "[HR-N11]", "interaction with HR-C1 (in words)": "absence of any observable interaction"}, {"smiles": "CC[C@H](C)[C@H](NC(=O)[C@H](CCC(N)=O)NC(=O)[C@H](CO)NC(=O)[C@@H](NC(=O)[C@H](C)NC(=O)[C@H](CCCCN)NC(=O)[C@H](CC(N)=O)NC(=O)[C@H](Cc1ccccc1)NC(=O)[C@H](CCC(N)=O)NC(=O)[C@H](CC(N)=O)NC(=O)[C@H](C)NC(=O)[C@@H](NC(=O)[C@H](CCC(N)=O)NC(=O)[C@H](CCCCN)NC(=O)[C@H](CCC(N)=O)NC(=O)[C@H](CC(N)=O)NC(=O)[C@H](CCC(=O)O)NC(=O)[C@H](Cc1ccc(O)cc1)NC(=O)[C@H](CC(C)C)NC(=O)[C@@H](NC(=O)[C@H](CC(N)=O)NC(=O)[C@H](CCC(N)=O)NC(=O)[C@@H](NC(=O)[C@@H](NC(=O)CNC(=O)[C@@H](NC(=O)CNC(=O)[C@H](CC(N)=O)NC(=O)[C@H](Cc1ccccc1)NC(=O)[C@H](CCCNC(=N)N)NC(=O)[C@H](Cc1ccc(O)cc1)NC(=O)[C@H](C)NC(=O)[C@H](CCSC)NC(=O)[C@H](CCC(N)=O)NC(=O)[C@H](CCSC)NC(C)=O)[C@@H](C)CC)C(C)C)[C@@H](C)O)C(C)C)[C@@H](C)CC)[C@@H](C)CC)C(N)=O", "note": "[HR-N5]", "interaction with HR-C1 (in words)": "no detectable interaction"}, {"smiles": "CC[C@H](C)[C@H](NC(=O)[C@H](C)NC(=O)[C@H](CCCCN)NC(=O)[C@H](CC(N)=O)NC(=O)[C@H](Cc1ccccc1)NC(C)=O)C(=O)N[C@@H](CO)C(=O)N[C@@H](CCC(N)=O)C(=O)N[C@H](C(=O)N[C@@H](CCC(N)=O)C(=O)N[C@@H](CCC(=O)O)C(=O)N[C@@H](CO)C(=O)N[C@@H](CC(C)C)C(=O)N[C@H](C(=O)N[C@H](C(=O)N[C@H](C(=O)N[C@@H](CO)C(=O)N[C@H](C(=O)N[C@@H](C)C(=O)N[C@@H](CC(C)C)C(=O)NCC(=O)N[C@@H](CCCCN)C(=O)N[C@@H](CC(C)C)C(=O)N[C@@H](CCC(N)=O)C(=O)N[C@@H](CC(=O)O)C(=O)N[C@H](C(=O)N[C@H](C(=O)N[C@@H](CC(N)=O)C(=O)N[C@@H](CCC(N)=O)C(=O)N[C@@H](CC(N)=O)C(=O)N[C@@H](C)C(=O)N[C@@H](CCC(N)=O)C(=O)N[C@@H](C)C(=O)N[C@@H](CC(C)C)C(=O)N[C@@H](CC(N)=O)C(=O)N[C@H](C(N)=O)[C@@H](C)O)C(C)C)C(C)C)[C@@H](C)O)[C@@H](C)O)[C@@H](C)O)[C@@H](C)O)[C@@H](C)CC", "note": "[HR-N9]", "induction of ellipticity at 222 nm with HR-C1": "3,500 degrees"}, {"smiles": "CC[C@H](C)[C@H](NC(=O)CNC(=O)[C@H](CC(N)=O)NC(=O)[C@H](Cc1ccccc1)NC(C)=O)C(=O)NCC(=O)N[C@H](C(=O)N[C@H](C(=O)N[C@@H](CCC(N)=O)C(=O)N[C@@H](CC(N)=O)C(=O)N[C@H](C(=O)N[C@@H](CC(C)C)C(=O)N[C@@H](Cc1ccc(O)cc1)C(=O)N[C@@H](CCC(=O)O)C(=O)N[C@@H](CC(N)=O)C(=O)N[C@@H](CCC(N)=O)C(=O)N[C@@H](CCCCN)C(=O)N[C@@H](CCC(N)=O)C(=O)N[C@H](C(=O)N[C@@H](C)C(=O)N[C@@H](CC(N)=O)C(=O)N[C@@H](CCC(N)=O)C(=O)N[C@@H](Cc1ccccc1)C(=O)N[C@@H](CC(N)=O)C(=O)N[C@@H](CCCCN)C(=O)N[C@@H](C)C(=O)N[C@H](C(=O)N[C@@H](CO)C(=O)N[C@@H](CCC(N)=O)C(=O)N[C@H](C(=O)N[C@@H](CCC(N)=O)C(=O)N[C@@H](CCC(=O)O)C(=O)N[C@@H](CO)C(=O)N[C@@H](CC(C)C)C(=O)N[C@H](C(=O)N[C@H](C(N)=O)[C@@H](C)O)[C@@H](C)O)[C@@H](C)CC)[C@@H](C)CC)[C@@H](C)CC)C(C)C)[C@@H](C)O)C(C)C", "note": "[HR-N6]", "interaction with HR-C1 (in words)": "No interactions"}, {"smiles": "CC[C@H](C)[C@H](NC(C)=O)C(=O)N[C@@H](CCC(N)=O)C(=O)N[C@@H](CCC(=O)O)C(=O)N[C@@H](CO)C(=O)N[C@@H](CC(C)C)C(=O)N[C@H](C(=O)N[C@H](C(=O)N[C@H](C(=O)N[C@@H](CO)C(=O)N[C@H](C(=O)N[C@@H](C)C(=O)N[C@@H](CC(C)C)C(=O)NCC(=O)N[C@@H](CCCCN)C(=O)N[C@@H](CC(C)C)C(=O)N[C@@H](CCC(N)=O)C(=O)N[C@@H](CC(=O)O)C(=O)N[C@H](C(=O)N[C@H](C(=O)N[C@@H](CC(N)=O)C(=O)N[C@@H](CCC(N)=O)C(=O)N[C@@H](CC(N)=O)C(=O)N[C@@H](C)C(=O)N[C@@H](CCC(N)=O)C(=O)N[C@@H](C)C(=O)N[C@@H](CC(C)C)C(=O)N[C@@H](CC(N)=O)C(=O)N[C@H](C(=O)N[C@@H](CC(C)C)C(=O)N[C@H](C(=O)N[C@@H](CCCCN)C(=O)N[C@@H](CCC(N)=O)C(=O)N[C@@H](CC(C)C)C(=O)N[C@@H](CO)C(=O)N[C@@H](CO)C(N)=O)C(C)C)[C@@H](C)O)C(C)C)C(C)C)[C@@H](C)O)[C@@H](C)O)[C@@H](C)O)[C@@H](C)O", "note": "[HR-N10]", "induction of ellipticity at 222 nm with HR-C1": "9,600 degrees"}, {"smiles": "CC[C@H](C)[C@H](NC(=O)[C@H](C)NC(=O)[C@H](CCCCN)NC(=O)[C@H](CC(N)=O)NC(=O)[C@H](Cc1ccccc1)NC(=O)[C@H](CCC(N)=O)NC(=O)[C@H](CC(N)=O)NC(=O)[C@H](C)NC(=O)[C@@H](NC(=O)[C@H](CCC(N)=O)NC(=O)[C@H](CCCCN)NC(=O)[C@H](CCC(N)=O)NC(C)=O)[C@@H](C)CC)C(=O)N[C@@H](CO)C(=O)N[C@@H](CCC(N)=O)C(=O)N[C@H](C(=O)N[C@@H](CCC(N)=O)C(=O)N[C@@H](CCC(=O)O)C(=O)N[C@@H](CO)C(=O)N[C@@H](CC(C)C)C(=O)N[C@H](C(=O)N[C@H](C(=O)N[C@H](C(=O)N[C@@H](CO)C(=O)N[C@H](C(=O)N[C@@H](C)C(=O)N[C@@H](CC(C)C)C(=O)NCC(=O)N[C@@H](CCCCN)C(=O)N[C@@H](CC(C)C)C(=O)N[C@@H](CCC(N)=O)C(=O)N[C@@H](CC(=O)O)C(=O)N[C@H](C(=O)N[C@H](C(=O)N[C@@H](CC(N)=O)C(=O)N[C@@H](CCC(N)=O)C(N)=O)C(C)C)C(C)C)[C@@H](C)O)[C@@H](C)O)[C@@H](C)O)[C@@H](C)O)[C@@H](C)CC", "note": "[HR-N8]", "interaction with HR-C1 (in words)": "No interactions"}]}]}
